Measurements: paper PMC5467147, “Identification of a Peptide for Systemic Brain Delivery of a Morpholino Oligonucleotide in Mouse Models of Spinal Muscular Atrophy” (Nucleic Acid Therapeutics, 2017)

Assays:
SMN2 pre-mRNA exon 7 = assay: In vivo screening of P-PMOs in neonatal SMA mice at PND4, full-length SMN2 by RT-qPCR; set-up: species or system mouse; conditions: facial vein at PND4, 2.66 nmol P-PMO, harvest 7 days after treatment, normalized to total SMN2, relative to saline, mean ± SEM, n = 4–6
patients = conditions: human, in vivo; cited from earlier work
SMNΔ7 mice = conditions: newborn SMNΔ7 mice, single ICV injections (27, 54, and 81 μg) at P0; cited from earlier work
Description: PMO is used in several clinical and preclinical studies due to its high stability and low toxicity. The PMO sequence PMO20, also known as HSMN2Ex7D(−10,-29), has been previously studied by Porensky et al.. Single ICV injections (27, 54, and 81 μg) of this PMO in newborn SMNΔ7 mice at P0 increased the levels of both full-length SMN2 RNA transcript in the brain and spinal cord as well as SMN protein and yielded an increased survival of >100 days. In a similar study, Zhou et al. used the same PMO sequence [PMO20 (−10, −29)] as well as PMO18 (−10, −27) and PMO25 (−10, −34 ...

[1] = test system: severe SMA (Smn1tm1Hung/tm1Hung;SMN2tg/o) mice; assay: Survival and phenotype of severe newborn SMA mice treated at PND0 and PND2; format: in vivo, mouse; conditions: severe SMA pups
Description: Experiments were carried out in the Biomedical Sciences Unit, University of Oxford, according to procedures authorized by the UK Home Office and approved by the Unit Approval Board. Experiments were carried out using the SMA-like mouse strain FVB.Cg-Smn1^tm1HungTg(SMN2)2Hung/J. For the purposes of welfare, the peptide screen was carried out on hemizygotic (Smn1^tm1Hung/wt;SMN2^tg/tg) pups generated as previously described. Each litter (n = 4–6 per P-PMO) at PND4 was injected with P-PMO (2.6 nmol) in 10–15 μL of 0.9% saline. The control litter was injected with 0.9% saline. Neonatal mice were euthanized 7 days postinjection and brains, kidneys, and quadriceps were extracted and frozen on dry ice before RNA extraction. The Br-ApoE (K→A)-PMO and Br-ApoE (K→A)-scrambled PMO were further analyzed in homozygotic pups (Smn1^tm1Hung/tm1Hung;SMN2^tg/o) generated as previously described. Pups used for phenotype assessment were injected with 10 μg/g (1 nmol) Br-ApoE (K→A)-PMO, Br-ApoE (K→A)-scrambled PMO, SMA-PMO through the facial vein at PND0 and PND2. Treated animals were weighed daily and observed for survival longevity. A humane endpoint was determined by mobility and weight. Animals who had reached their humane endpoint were euthanized by rising CO2.
Pups were also tested from PND2 to PND12 for hindlimb strength and […]. Hindlimb strength was scored using a hindlimb suspension (HLS) test developed by PsychoGenics, Inc. and described in the standardized protocols and procedures for preclinical studies by TREAT-NMD. The HLS score relates to the position of the legs and tail of pups suspended by their hindlimbs onto the lip of a 50-cc test tube. A score of 0 − 4 is given with the 0 relating to the weakest phenotype (feet clasped and tail down) and a 4 given to the strongest phenotype (legs spread and tail up). For the purposes of reproducibility, factors such as leg pulls and time were left out of the analysis. Righting reflex was measured by placing pups on their back and timing their ability to right themselves onto all four paws.

Substance	full-length SMN2 transcript, Brain (SMN2 pre-mRNA exon 7)	full-length SMN2 transcript, Kidney (SMN2 pre-mRNA exon 7)	full-length SMN2 transcript, Quad (quadriceps) (SMN2 pre-mRNA exon 7)	patients who developed side effects such as headache, back pain, and postlumbar puncture syndromes (patients)	survival (SMNΔ7 mice) [days]	age range (survival) ([1]; 10 μg/g facial vein at PND0 and PND2, days by b51, saline 6–13)	median survival ([1]; two doses of 10 mg/kg (10 μg/g) facial vein at PND0 and PND2, saline 10.5 days) [days]	hindlimb strength (hindlimb suspension tube test) ([1]; two doses of 10 mg/kg at PND0 and PND2, PND2 to PND12)
AngioPep-2	1 ± 0.03	1.07 ± 0.07	1.24 ± 0.1					
Nusinersen				32 % of patients				
SMA-PMO: unconjugated 20-mer PMO for SMN2 exon-7 inclusion, 5′-ATTCACTTTCATAATGCTGG-3′ (all phosphorodiamidate morpholino (PMO))	1 ± 0.02	1 ± 0.04	1.25 ± 0.05		> 100	11–49	29	gradual decline in muscle strength
